Experimental findings from ChEMBL document CHEMBL6083256, “Design, synthesis and biological evaluation of novel oxazole derivatives as potential hypoglycemic agents” (Bioorg Med Chem, 2024) are described below.

A word on the IC50: it is the point on the concentration scale where inhibition reaches its midpoint. Broadly, the inhibition is the percentage by which the read-out fell short of the control. The low end stands for little suppression, the high end for strong suppression.

In data set [1] the test system is HepG2. The data set can be described thus: Induction of glucose consumption in starved human HepG2 cells assessed as fold increase in activity at 20 uM incubated for 24 hrs relative to control. The data set is classed as functional.
In data set [2] the test system is HepG2. The data set can be described thus: Cytotoxicity against human HepG2 cells assessed as change in cell morphology at 3.125 to 100 uM incubated for 72 hrs. It counts as toxicity, cell-based. To be noted: hepg2, 72 h, dose 3.125-100 µM.
Data set [3] deals with HepG2. The data set can be described thus: Cytotoxicity against human HepG2 cells at 25 uM incubated for 72 hrs by CCK8 assay. It counts as toxicity, cell-based. To be noted: hepg2, 72 h. On the technique in general: Tetrazolium dyes change colour on reduction, which living cells bring about.
The test system of data set [4] is 3T3-L1. The data set can be described thus: Induction of glucose consumption in starved mouse 3T3-L1 cells incubated for 24 hrs. It counts as functional, cell-based. As to conditions: dose 1-25 µM; call rule not given here.
Data set [5] is described as follows: Cytotoxicity against mouse 3T3-L1 cells incubated for 72 hrs by CCK8 assay. It counts as toxicity, cell-based.
Data set [6] has as its system 3T3-L1. Put plainly: Cytotoxicity against mouse 3T3-L1 cells at 25 uM incubated for 72 hrs by CCK8 assay. It counts as toxicity, cell-based. To be noted: 3t3-l1, 72 h.
The subject of a further data set is Mus musculus. The data set can be described thus: Hypoglycemic activity in overnight-fasted C57BL/6J mouse assessed as reduction in blood glucose level at 80 mg/kg, ip pretreated for 30 mins followed by glucose administration measured upto 120 mins by OGTT analysis. As to conditions: time 150.0 min. It counts as functional, organism-based.
Data set [7] deals with 3T3-L1. Put plainly: Cytotoxicity against mouse 3T3-L1 cells assessed as change in cell morphology at 3.125 to 100 uM incubated for 72 hrs. The data set is classed as toxicity, cell-based. As to conditions: 3t3-l1, 72 h, dose 3.125-100 µM.
Data set [8] relates to HepG2. The data set can be described thus: Induction of glucose consumption in starved human HepG2 cells incubated for 24 hrs. It counts as functional, cell-based. As to conditions: dose 1-25 µM.
Data set [9] can be described thus: Cytotoxicity against human HepG2 cells incubated for 72 hrs by CCK8 assay. The data set is classed as toxicity, cell-based.
Data set [10] deals with 3T3-L1. Put plainly: Cytotoxicity against mouse 3T3-L1 cells at 100 uM incubated for 72 hrs by CCK8 assay. To be noted: 3t3-l1, 72 h. The data set is classed as toxicity, cell-based.
In data set [11] the test system is HepG2. Put plainly: Cytotoxicity against human HepG2 cells at 100 uM incubated for 72 hrs by CCK8 assay. The data set is classed as toxicity, cell-based. As to conditions: hepg2, 72 h.
Another data set deals with CYP2D6 (Homo sapiens, UniProt P10635). Put plainly: Inhibition of CYP2D6 in human liver microsomes at 10 uM relative to control. The data set is classed as ADME, Microsome. For orientation: Microsomes from liver hold many membrane-bound enzymes, among them those of drug oxidation.
CYP2D6, sequence (P10635 whole entry): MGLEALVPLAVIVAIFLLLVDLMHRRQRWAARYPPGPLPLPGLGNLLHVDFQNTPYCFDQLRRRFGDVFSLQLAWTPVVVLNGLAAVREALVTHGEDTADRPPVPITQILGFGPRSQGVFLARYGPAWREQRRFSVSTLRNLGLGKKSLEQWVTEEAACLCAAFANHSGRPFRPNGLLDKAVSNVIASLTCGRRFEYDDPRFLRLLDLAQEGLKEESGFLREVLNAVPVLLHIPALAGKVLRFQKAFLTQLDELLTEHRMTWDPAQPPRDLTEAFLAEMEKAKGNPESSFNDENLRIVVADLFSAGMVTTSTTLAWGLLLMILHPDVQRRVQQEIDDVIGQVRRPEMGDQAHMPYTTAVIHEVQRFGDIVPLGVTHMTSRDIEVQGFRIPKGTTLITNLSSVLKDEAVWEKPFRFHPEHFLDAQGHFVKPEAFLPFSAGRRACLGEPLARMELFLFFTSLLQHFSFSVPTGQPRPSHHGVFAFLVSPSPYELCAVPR
A further data set concerns the target T1, CYP1A2 (Homo sapiens, UniProt P05177).
T1 sequence (P05177 whole entry): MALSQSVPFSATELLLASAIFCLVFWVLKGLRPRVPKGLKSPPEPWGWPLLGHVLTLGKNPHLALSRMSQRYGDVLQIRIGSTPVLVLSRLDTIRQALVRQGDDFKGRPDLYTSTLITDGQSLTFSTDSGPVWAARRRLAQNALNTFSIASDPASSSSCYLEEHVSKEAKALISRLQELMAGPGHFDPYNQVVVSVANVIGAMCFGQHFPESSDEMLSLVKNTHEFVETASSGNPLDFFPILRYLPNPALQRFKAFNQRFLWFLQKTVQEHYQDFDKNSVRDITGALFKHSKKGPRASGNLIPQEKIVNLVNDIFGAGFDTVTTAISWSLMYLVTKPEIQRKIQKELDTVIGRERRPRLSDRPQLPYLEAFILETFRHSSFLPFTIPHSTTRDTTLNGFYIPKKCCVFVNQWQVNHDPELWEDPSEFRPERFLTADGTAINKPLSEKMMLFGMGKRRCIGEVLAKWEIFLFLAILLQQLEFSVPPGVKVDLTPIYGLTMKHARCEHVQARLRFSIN
Put plainly: Inhibition of CYP1A2 in human liver microsomes at 10 uM relative to control. The data set is classed as ADME, Microsome.

Data set [12] concerns the target AMP-activated protein kinase, AMPK (Homo sapiens) (UniProt P54646+O43741+P54619+Q9UGJ0+Q9Y478+Q13131+Q9UGI9). The data set can be described thus: Induction of AMPK phosphorylation at Thr172 in human HepG2 cells incubated for 24 hrs by Western blot analysis. As to conditions: filed as activator. The data set is classed as cell-based.
The target of a further data set is CYP2C19 (Homo sapiens, UniProt P33261). Put plainly: Inhibition of CYP2C19 in human liver microsomes at 10 uM relative to control. It counts as ADME, Microsome.
CYP2C19, sequence (P33261 whole entry): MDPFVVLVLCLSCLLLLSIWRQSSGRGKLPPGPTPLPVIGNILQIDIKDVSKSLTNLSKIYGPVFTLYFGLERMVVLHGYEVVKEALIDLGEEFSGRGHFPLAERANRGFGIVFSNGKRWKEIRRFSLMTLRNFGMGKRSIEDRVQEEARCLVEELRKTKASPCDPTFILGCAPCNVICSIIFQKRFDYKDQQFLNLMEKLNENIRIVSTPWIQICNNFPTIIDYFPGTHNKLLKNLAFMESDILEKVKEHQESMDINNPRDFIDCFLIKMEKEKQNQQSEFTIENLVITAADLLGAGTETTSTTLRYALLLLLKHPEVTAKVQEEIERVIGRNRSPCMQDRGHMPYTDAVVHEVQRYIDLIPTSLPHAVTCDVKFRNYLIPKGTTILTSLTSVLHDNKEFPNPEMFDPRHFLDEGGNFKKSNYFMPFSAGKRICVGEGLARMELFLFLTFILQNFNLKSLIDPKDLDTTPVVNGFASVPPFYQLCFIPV
The target in another data set is CYP3A4 (Homo sapiens, UniProt P08684). Put plainly: Inhibition of CYP3A4 in human liver microsomes at 10 uM relative to control. The data set is classed as ADME, Microsome.
CYP3A4, sequence (P08684 whole entry): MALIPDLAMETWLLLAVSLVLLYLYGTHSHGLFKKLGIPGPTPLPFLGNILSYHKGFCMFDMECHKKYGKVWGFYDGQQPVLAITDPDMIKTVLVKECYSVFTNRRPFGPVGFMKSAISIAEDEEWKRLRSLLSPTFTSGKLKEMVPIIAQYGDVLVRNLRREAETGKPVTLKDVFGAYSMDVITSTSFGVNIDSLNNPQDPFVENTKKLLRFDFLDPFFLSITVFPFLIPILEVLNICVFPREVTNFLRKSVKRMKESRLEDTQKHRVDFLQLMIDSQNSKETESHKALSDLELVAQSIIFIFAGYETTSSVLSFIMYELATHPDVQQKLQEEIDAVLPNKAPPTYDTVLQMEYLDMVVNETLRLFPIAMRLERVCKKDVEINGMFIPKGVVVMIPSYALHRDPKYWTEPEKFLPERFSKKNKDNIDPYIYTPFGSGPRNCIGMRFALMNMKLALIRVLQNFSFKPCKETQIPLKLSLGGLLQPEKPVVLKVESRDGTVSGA
For a further data set, the target named is CYP2C9 (Homo sapiens, UniProt P11712). The data set can be described thus: Inhibition of CYP2C9 in human liver microsomes at 10 uM relative to control. The data set is classed as ADME, Microsome.
CYP2C9, sequence (P11712 whole entry): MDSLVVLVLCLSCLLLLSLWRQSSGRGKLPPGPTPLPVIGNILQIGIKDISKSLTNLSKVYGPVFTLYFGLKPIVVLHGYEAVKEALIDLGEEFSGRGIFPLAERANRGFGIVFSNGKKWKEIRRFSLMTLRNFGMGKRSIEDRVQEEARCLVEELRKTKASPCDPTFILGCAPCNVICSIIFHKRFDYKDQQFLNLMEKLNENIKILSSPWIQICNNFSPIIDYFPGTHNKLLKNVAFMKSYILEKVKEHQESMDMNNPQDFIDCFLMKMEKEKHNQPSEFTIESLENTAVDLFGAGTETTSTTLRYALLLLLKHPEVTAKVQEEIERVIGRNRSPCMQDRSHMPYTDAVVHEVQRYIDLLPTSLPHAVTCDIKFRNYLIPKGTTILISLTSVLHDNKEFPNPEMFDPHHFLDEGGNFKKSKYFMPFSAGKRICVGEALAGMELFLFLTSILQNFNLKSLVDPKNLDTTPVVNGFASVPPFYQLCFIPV
The test system of data set [13] is HepG2. The data set can be described thus: Induction of glucose consumption in starved human HepG2 cells assessed as fold increase in activity at 2 mM incubated for 24 hrs relative to control. It counts as functional.

As for `CCOC1CCN(Cc2coc(-c3ccc(C(F)(F)F)cc3)n2)CC1`, in the data set on HepG2 [1], the “fold change (FC)” value was determined as 1.42.

In the case of `COCC1CCN(Cc2coc(-c3ccc(C(F)(F)F)cc3)n2)CC1`, the “fold change (FC)” value in the data set on HepG2 [1] is 1.2.

Consider `OC1CCN(Cc2coc(-c3ccc(C(F)(F)F)cc3)n2)CC1`, for which the “fold change (FC)” value with HepG2 [1] was determined as 1.42.

In the case of `CN1CCN(Cc2coc(-c3ccc(C(F)(F)F)cc3)n2)CC1`, in the data set with HepG2 [1], the “fold change (FC)” value is 1.5.

For the compound `OCC1CCN(Cc2coc(-c3cc(F)cc(F)c3)n2)CC1`, in the data set on HepG2 [1], the “fold change (FC)” value stood at 0.95.

Turning to `Cc1cccc(-c2nc(CN3CCC(CO)CC3)co2)c1`, the “fold change (FC)” value in the data set on HepG2 [1] is listed as 1.25.

Take `OCC1CCN(Cc2coc(-c3cccc(Cl)c3)n2)CC1`: in the data set on HepG2 [1], the “fold change (FC)” value came to 1.05.

For the compound `CC(C)(C)OC(=O)N1CCN(Cc2coc(-c3ccc(C(F)(F)F)cc3)n2)CC1`, the “fold change (FC)” value with HepG2 [1] was determined as 1.46.

In the case of `COC1CCCN(Cc2coc(-c3ccc(C(F)(F)F)cc3)n2)C1` (configuration not stated), the “fold change (FC)” value in the data set on HepG2 [1] is 1.05.

Turning to `CS(=O)(=O)N1CCN(Cc2coc(-c3ccc(C(F)(F)F)cc3)n2)CC1`, the Activity entry in the data set on HepG2 [2] was “Non-toxic”; in the data set with HepG2 [3] it was “Non-toxic”; with 3T3-L1 [4] it was “Dose-dependent-effect”; in the data set with 3T3-L1 [6] it was “Non-toxic”; in the data set with Mus musculus, “Not active; Exhibited Minimal Activity”; with 3T3-L1 [7] it was “Non-toxic”. For the same compound, in the data set on HepG2 [8], the Activity result was “Dose-dependent-effect”. In addition, the “fold change (FC)” value with HepG2 [1] turned out to be 1.63. The IC50 at 72 h in data set [5] and in data set [9] was greater than 100 µM in each case.

In the case of `OCC1CCN(Cc2coc(-c3ccc(Cl)cc3)n2)CC1`, the “fold change (FC)” value in the data set with HepG2 [1] was 1.24.

`FC(F)(F)c1ccc(-c2nc(CN3CCOCC3)co2)cc1`: the “fold change (FC)” value in the data set with HepG2 [1] stood at 1.52.

For `CC(=O)N1CCN(Cc2coc(-c3ccc(C(F)(F)F)cc3)n2)CC1`, the “fold change (FC)” value in the data set with HepG2 [1] is recorded as 1.21.

Regarding `OCC1CCN(Cc2coc(-c3ccc(C(F)(F)F)cc3)n2)CC1`, the “fold change (FC)” value in the data set with HepG2 [1] stood at 1.43.

In the case of `COc1cccc(-c2nc(CN3CCC(CO)CC3)co2)c1`, the “fold change (FC)” value with HepG2 [1] is reported as 1.27.

With `OCC1CCN(Cc2coc(-c3cccc(C(F)(F)F)c3)n2)CC1`, the “fold change (FC)” value in the data set on HepG2 [1] is recorded as 1.4.

`CS(=O)(=O)C1CCN(Cc2coc(-c3ccc(C(F)(F)F)cc3)n2)CC1`: the “fold change (FC)” value with HepG2 [1] turned out to be 1.39.

Take `NC1CCN(Cc2coc(-c3ccc(C(F)(F)F)cc3)n2)CC1`: in the data set on HepG2 [1], the “fold change (FC)” value was 1.6. In addition, the Activity entry is “Dose-dependent-effect” in the data set with 3T3-L1 [4]; “Not active; Exhibited Minimal Activity” in the data set with Mus musculus; “Toxic” in the data set with 3T3-L1 [10]; “Toxic” in the data set on HepG2 [11]; “Dose-dependent-effect” with HepG2 [8].

Consider `COC(=O)C1CCN(Cc2coc(-c3ccc(C(F)(F)F)cc3)n2)CC1`, for which the Activity entry is “Non-toxic” in the data set on HepG2 [2]; “Non-toxic” with HepG2 [3]; “Dose-dependent-effect” with 3T3-L1 [4]; “Non-toxic” in the data set on 3T3-L1 [6]; “Dose-dependent-effect” in [12]; “Active; Exhibited Strongest Activity Than Other Tested Compounds” in the data set on Mus musculus. Moreover, the results for the Activity entry with 3T3-L1 [7] and with HepG2 [8] were “Non-toxic” and “Dose-dependent-effect”, respectively. Besides, the “fold change (FC)” value with HepG2 [1] came to 1.6. Besides, the inhibition at 10 µM on CYP2D6 was determined as 4.6%; against CYP1A2, 16.2%; on CYP2C19 it was 21.7%; against CYP3A4, 2.1%; against CYP2C9, 5.8%. Moreover, the IC50 at 72 h in data set [5] and in [9] was greater than 100 µM throughout.

As for `OCC1CCN(Cc2coc(-c3cccc(F)c3)n2)CC1`, in the data set on HepG2 [1], the “fold change (FC)” value was 1.12.

As for `OC1CCCN(Cc2coc(-c3ccc(C(F)(F)F)cc3)n2)C1` (configuration not stated), in the data set with HepG2 [1], the “fold change (FC)” value is reported as 1.49.

Take `OCC1CCCN(Cc2coc(-c3ccc(C(F)(F)F)cc3)n2)C1` (configuration not stated): the “fold change (FC)” value with HepG2 [1] worked out at 1.42.

For the compound `OCC1CCN(Cc2coc(-c3ccc(F)cc3)n2)CC1`, the “fold change (FC)” value in the data set on HepG2 [1] was found to be 1.27.

Consider `OCC1CCN(Cc2coc(-c3ccccc3)n2)CC1`, for which, in the data set on HepG2 [1], the “fold change (FC)” value stood at 1.36.

Regarding `CCOC(=O)C1CCN(Cc2coc(-c3ccc(C(F)(F)F)cc3)n2)CC1`, the “fold change (FC)” value in the data set on HepG2 [1] turned out to be 1.34.

As for `Cc1ccc(-c2nc(CN3CCC(CO)CC3)co2)cc1`, the “fold change (FC)” value with HepG2 [1] is listed as 1.39.

Turning to `CN(C)C(=N)NC(=N)N` [METFORMIN], the “fold change (FC)” value with HepG2 [13] was determined as 1.57.

In the case of `COC1CCN(Cc2coc(-c3ccc(C(F)(F)F)cc3)n2)CC1`, the Activity result with HepG2 [2] was “Non-toxic”; in the data set with HepG2 [3] it was “Non-toxic”; in the data set with 3T3-L1 [4], “Dose-dependent-effect”; in the data set on 3T3-L1 [6] it was “Non-toxic”; with Mus musculus, “Not active; Exhibited Weak Activity”; with 3T3-L1 [7], “Non-toxic”. Further, the Activity result in the data set with HepG2 [8] was “Dose-dependent-effect”. Also, the “fold change (FC)” value with HepG2 [1] was 1.61. Besides, the IC50 at 72 h in data set [5] and in [9] was greater than 100 µM each time.

Turning to `COc1ccc(-c2nc(CN3CCC(CO)CC3)co2)cc1`, the “fold change (FC)” value in the data set on HepG2 [1] is 1.05.
